Assay results from patent publication US20040044037A1, “Amidino-urea serotonin receptor ligands and compositions, their pharmaceutical uses, and methods for their snythesis” (priority 2003, published 2004).

Key:
[1] = target: T1, human 5-HT1a receptors (Homo sapiens, UniProt P08908); assay: Competition radioligand binding, h5-HT1a; details: [3H]5-CT; membranes of CHO K1 cells; read-out: Ki 5-HT1A
T1 construct: expressed in transfected cells; host or cells: CHO K1 cells
T1 sequence (P08908 1-422): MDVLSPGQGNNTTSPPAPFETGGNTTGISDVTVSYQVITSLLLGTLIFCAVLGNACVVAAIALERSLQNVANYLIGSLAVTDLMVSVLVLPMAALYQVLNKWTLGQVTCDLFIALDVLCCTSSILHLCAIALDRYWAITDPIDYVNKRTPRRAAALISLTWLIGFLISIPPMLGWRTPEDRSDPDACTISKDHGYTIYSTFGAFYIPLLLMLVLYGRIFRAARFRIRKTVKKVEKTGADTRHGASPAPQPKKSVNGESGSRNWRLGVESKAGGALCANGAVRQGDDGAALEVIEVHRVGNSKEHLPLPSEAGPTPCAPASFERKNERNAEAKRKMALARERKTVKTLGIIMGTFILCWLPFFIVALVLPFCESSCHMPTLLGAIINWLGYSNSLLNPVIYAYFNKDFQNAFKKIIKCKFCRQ
Method: (§1) Cells and Membrane Preparation: HEK 293 cells stably expressing human 5-HT7B (h5-HT7b) receptors were grown in Dulbecco's Modified Eagle's Medium (DMEM; Gibco) without sodium pyruvate and containing 4.5 g/L glucose, L-glutamine/penicillin-streptomycin (Gemini), 10% fetal bovine serum and 250 mg/l of the antibiotic, G418 (Geneticin) as previously described (Jasper, J. R., Kosaka, A., To, Z. P., Chang, D. J. and Eglen, R. M. (1997) Cloning, expression and pharmacology of a truncated splice variant of the human 5-ht7 receptor (h5-ht7b). Br. J. Pharmacol. 122(1):126-132.). Cell pellets were homogenized in approximately 50 mL of homogenization buffer (buffer A) containing: 50 mM Tris (pH 7.4), 2 mM EGTA, 0.32 M sucrose, 10 μM PMSF, 1 μg/mL leupeptin, 5 μg/mL Pepstatin A, and 5 μg/mL aprotinin using an UltraTurax homogenizer (Tekmar Company, Cincinnati, Ohio) at 80% maximum setting three times for 10 sec. Cell pellets were centrifuged at 4° C. at 1,500×g for 10 min in a Beckman GS-6R centrifuge. Pellets were resuspended in buffer A, homogenized and centrifuged as described above. Pooled supernatants were transferred to centrifuge bottles and centrifuged at 4° C. at 20,000×g for 30 min in a Beckman J2-HS centrifuge. Cell pellets were resuspended in buffer A and were centrifuged at 4° C. at 20,000×g for 30 min. Cell pellets were resuspended in buffer A and stored at −70° C. in aliquots of 2.5 mg/mL total membrane protein. Total membrane protein was assessed utilizing a BCA kit (Pierce; Rockford, Ill.). Membranes containing human 5-HT1a or 5HT2a receptors expressed in CHO K1 cells were prepared as described above.
(§2) Radioligand Binding Assays: For 5-HT7 saturation binding experiments, HEK-293 cell membranes expressing h5-HT7 receptors (5-10 μg membrane protein/well) were incubated in duplicate with [^3H]5-CT (approximately 0.2 nM) in binding assay buffer containing: 50 mM HEPES (pH 7.4), 0.5 mM EDTA, 10 mM MgCl2, 10 μM pargyline to inhibit monoamine oxidase activity, and 0.1% sodium ascorbate, in a final volume of 200 μL in 96-well polypropylene plates for 2 hours at 37° C. Nonspecific binding was determined by incubating membranes with 1 μM 5-HT. All radioligand binding assays were stopped by rapid filtration onto 96-well GF/C filter plates (Packard) soaked in 0.1% polyethylenimine. Filters were washed three times with ice-cold phosphate-buffered saline (PBS) wash buffer containing 50 mM NaPO4 (pH 7.4), 0.9% NaCl, 2 mM MgCl2 and 0.02% NaN3. The filters were then counted using liquid scintillation in a Packard Topcount scintillation counter.
(§3) Data Analysis: Radioligand binding experiments were analyzed with Prism™ (Graphpad, San Diego, Calif.), a computer graphics and statistics program. IC50 values and Hill slopes for compounds were generated by nonlinear regression using Prism™. Values for Ki calculated from IC50 values by the Cheng and Prussoff equation (Cheng, Y. and Prusoff, W. H., (1973), “Relationship between the inhibition constant (Ki) and the concentration of inhibitor which causes 50 per cent inhibition (I50) of an enzymatic reaction.” Biochemical Pharmacol. 22:3099-3108).

[2] = target: T2, human 5HT2a receptors (Homo sapiens, UniProt P28223); assay: Competition radioligand binding, 5-HT2A; details: [3H]Ketanserin; membranes of CHO K1 cells; read-out: Ki 5-HT2A
T2 construct: expressed in transfected cells; host or cells: CHO K1 cells
T2 sequence (P28223 whole entry): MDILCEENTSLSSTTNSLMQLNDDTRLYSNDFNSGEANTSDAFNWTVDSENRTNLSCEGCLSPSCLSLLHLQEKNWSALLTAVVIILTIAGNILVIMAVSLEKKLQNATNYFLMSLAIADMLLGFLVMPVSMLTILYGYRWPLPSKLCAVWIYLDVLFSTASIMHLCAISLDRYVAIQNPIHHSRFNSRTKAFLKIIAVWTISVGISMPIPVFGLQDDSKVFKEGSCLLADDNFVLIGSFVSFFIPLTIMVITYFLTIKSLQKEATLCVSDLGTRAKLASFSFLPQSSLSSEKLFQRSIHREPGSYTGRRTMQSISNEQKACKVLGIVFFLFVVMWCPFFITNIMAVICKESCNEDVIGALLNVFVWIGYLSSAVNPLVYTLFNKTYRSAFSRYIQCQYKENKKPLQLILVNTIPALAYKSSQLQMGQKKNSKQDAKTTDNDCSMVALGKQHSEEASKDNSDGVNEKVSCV
Method: as §1, §2, §3

[3] = target: T3, human 5-HT6 (h5-HT6) receptors (Homo sapiens, UniProt P50406); assay: Competition radioligand binding, h5-HT6; details: [3H]LSD; membranes of HEK-293 cells; read-out: Ki 5-HT6
T3 construct: purchased Receptor Biology, Inc. (Beltsville, Md.); host or cells: HEK-293 cells
T3 sequence (P50406 whole entry): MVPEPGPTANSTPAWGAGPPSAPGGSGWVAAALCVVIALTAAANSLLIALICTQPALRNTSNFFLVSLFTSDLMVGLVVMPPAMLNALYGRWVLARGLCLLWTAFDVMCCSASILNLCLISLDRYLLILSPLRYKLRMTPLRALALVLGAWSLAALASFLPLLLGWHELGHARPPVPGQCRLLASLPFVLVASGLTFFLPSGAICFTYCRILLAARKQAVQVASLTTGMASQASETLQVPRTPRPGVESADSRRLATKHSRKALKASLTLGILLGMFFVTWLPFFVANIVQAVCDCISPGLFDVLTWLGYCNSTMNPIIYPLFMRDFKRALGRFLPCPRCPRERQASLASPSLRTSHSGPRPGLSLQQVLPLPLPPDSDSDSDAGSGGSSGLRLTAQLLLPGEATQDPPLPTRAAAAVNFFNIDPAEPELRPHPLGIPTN

[4] = target: T4, human 5-HT7B (h5-HT7b) receptors (Homo sapiens, UniProt P34969); assay: Competition radioligand binding, h5-HT7b; details: [3H]5-CT; membranes of HEK 293 cells; read-out: Ki 5-HT7
T4 construct: expressed in transfected cells
T4 sequence (P34969 1-432 limits assumed): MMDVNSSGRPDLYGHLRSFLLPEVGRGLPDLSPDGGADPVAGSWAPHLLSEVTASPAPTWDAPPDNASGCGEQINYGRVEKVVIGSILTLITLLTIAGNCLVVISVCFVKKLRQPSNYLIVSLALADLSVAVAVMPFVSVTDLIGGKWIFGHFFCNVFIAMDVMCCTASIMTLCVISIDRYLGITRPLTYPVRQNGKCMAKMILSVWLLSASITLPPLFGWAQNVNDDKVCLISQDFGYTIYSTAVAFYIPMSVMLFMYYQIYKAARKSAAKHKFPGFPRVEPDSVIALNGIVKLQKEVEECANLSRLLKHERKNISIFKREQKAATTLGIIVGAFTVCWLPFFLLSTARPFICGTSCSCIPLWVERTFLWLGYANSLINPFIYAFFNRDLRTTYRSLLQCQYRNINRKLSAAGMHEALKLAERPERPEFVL
From the text: The compounds of the invention interact with 5-HT receptors and show selectivity for 5-HT receptors. The 5-HT receptor binding properties of the compounds are identified by competitive radioligand binding assays wherein membranes prepared from transfected cells expressing the 5-HT receptor subtype of interest. “Binding constants” refers herein to Ki values measured by inhibition of the binding of radiolabelled ligands that are selective for the 5-HT receptor type being studied. For 5-HT7 receptors, Ki values are determined by measuring the inhibition of 5-carboxamidotryptamine (5-CT) binding, wherein 5-HT7 receptors were incubated with the radiolabelled high affinity ligand, 5-carboxamidotryptamine ([^3H]5-CT), in the presence and absence of the compounds of the invention, at varying concentrations. The compounds of the invention have high binding affinity for serotonin receptors as measured by dissociation constant Ki. […] “Selectivity” for receptor type, in the context of this invention, refers to the ratio of binding constants for the two receptor types being compared. […] The compounds of the present invention preferably show selectivity for 5-HT7 receptors over other serotonin receptor subtypes of greater than about 100. The compounds of the present invention also preferably show selectivity for 5-HT7 receptors over other receptor types, such as dopamine D2, of greater than about 100.
as §1
as §2, with “counter. […]” for “counter.”

[5] = target: T5, human D2S dopamine (hD2S-DA) receptors (Homo sapiens, UniProt P14416); assay: Competition radioligand binding, hD2S dopamine; details: [3H]Spiperone; membranes of A9 L cells; read-out: Ki D2
T5 construct: purchased Receptor Biology, Inc. (Beltsville, Md.); host or cells: A9 L cells
T5 sequence (P14416 1-414 isoform P14416-2): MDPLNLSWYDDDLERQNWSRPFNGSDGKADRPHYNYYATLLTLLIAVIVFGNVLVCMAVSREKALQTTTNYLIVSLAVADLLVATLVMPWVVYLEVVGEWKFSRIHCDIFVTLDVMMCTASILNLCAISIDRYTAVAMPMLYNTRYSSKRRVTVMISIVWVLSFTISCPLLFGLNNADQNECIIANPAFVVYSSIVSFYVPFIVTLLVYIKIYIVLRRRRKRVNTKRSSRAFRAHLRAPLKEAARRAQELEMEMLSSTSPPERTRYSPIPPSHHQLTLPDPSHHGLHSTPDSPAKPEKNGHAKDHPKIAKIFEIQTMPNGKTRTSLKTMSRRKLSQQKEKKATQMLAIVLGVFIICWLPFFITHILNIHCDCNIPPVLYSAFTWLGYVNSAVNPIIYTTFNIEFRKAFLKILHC

Row | Compound | Ki [2] [µM] | Ki [3] [µM] | Ki [4] [µM] | Ki [5] [µM] | Ki [1] [µM]
1 | CC(=O)NC(=N)NCc1cccc2ccccc12 [Example 3, N-Acetyl-N′-(1-naphthylmethyl)guanidine] | 0.008 | 2.72 | 0.1 | > 2.5 | 1.53
2 | N=C(NCc1cccc2ccccc12)NC(=O)NCc1c(N)cccc1F [Example 44, 1-({[({[(2-Amino-6-fluorobenzyl)amino]carbonyl}amino)(imino)methyl]amino}methyl)naphthalene] |  | 0.5 | 0.033 | 0.89 | 
3 | N=C(NCc1cccc2ccccc12)NC(=O)NCCSCc1c(F)cccc1Cl [Example 47, 1-[10-(2-Chloro-6-fluorophenyl)-3-imino-5-oxo-9-thia-2,4,6-triazadec-1-yl]naphthalene] |  | 0.53 | 0.12 | 0.86 | 
4 | COc1cc(CNC(=O)NC(=N)NCc2cccc3ccccc23)cc(OC)c1OC [Example 49, 1-({[Imino({[(3,4,5-trimethoxybenzyl)amino]carbonyl}amino)methyl]amino}methyl)naphthalene] |  | 1.13 | 0.03 | 0.83 | 
5 | N=C(NCc1cccc2ccccc12)NC(=O)NCC1CCN(Cc2cccc(C(F)(F)F)c2)CC1 [Example 57, 4-({[({Imino[(1-naphthylmethyl)amino]methyl}amino)carbonyl]amino}methyl)-1-[3-(trifluoromethyl)benzyl]piperidine] | 0.13 |  | 0.059 | 1.57 | 
6 | N#Cc1ccc(CN2CCC(CNC(=O)NC(=N)NCc3cccc4ccccc34)CC2)cc1 [Example 59, 1-(4-Cyanobenzyl)-4-({[({imino[(1-naphthylmethyl)amino]methyl}amino)carbonyl]amino}methyl)piperidine] | 0.0026 |  | 0.085 | > 2.5 | 
7 | N=C(NCCc1ccccc1)NC(=O)N1CCN(Cc2ccccc2)CC1 [Example 61, N-[(4-Benzyl-1-piperazinyl)carbonyl]-N′-phenethylguanidine] | 1.8 |  | 0.49 | > 2.5 | 0.93
8 | N=C(NCc1cccc2ccccc12)NC(=O)NCC1CCN(Cc2noc(-c3ccccc3)n2)CC1 [Example 64, 4-({[({Imino[(1-naphthylmethyl)amino]methyl}amino)carbonyl]amino}methyl)-1-[(5-phenyl-1,2,4-oxadiazol-3-yl)methyl]piperidine] | 0.0042 |  | 0.091 | > 2.5 | 
9 | N=C(NCc1cccc2ccccc12)NC(=O)NCC1CCN(Cc2cccc3ccccc23)CC1 [Example 69, 4-({[({Imino[(1-naphthylmethyl)amino]methyl}amino)carbonyl]amino}methyl)-1-(1-naphthylmethyl)piperidine] | 0.011 |  | 0.027 | 0.72 | 
10 | CCOc1ccccc1CNC(=N)NC(=O)NC [Example 84, 1-Ethoxy-2-{[(imino{[(methylamino)carbonyl]amino}methyl)amino]methyl}benzene] | 0.4 | 8.66 |  | > 2.5 | > 4

The remaining molecules from weak to strong by Ki [4], led by results:

Row | Ki [2] [µM] | Ki [3] [µM] | Ki [4] [µM] | Ki [5] [µM] | Compound | Ki [1] [µM]
11 |  | 1.74 | 0.022 | 1.25 | N=C(NCc1cccc2ccccc12)NC(=O)N[C@H]1c2ccccc2C[C@H]1O [Example 42, 1-({[[({[(1S,2R)-2-Hydroxy-2,3-dihydro-1H-inden-1-yl]amino}carbonyl)amino](imino)methyl]amino}methyl)naphthalene] | 
12 | 0.0098 |  | 0.022 | 0.49 | Cc1cc(C)cc(CN2CCC(CNC(=O)NC(=N)NCc3cccc4ccccc34)CC2)c1 [Example 62, 1-(3,5-Dimethylbenzyl)4-({[({imino[(1-naphthylmethyl)amino]methyl}amino)carbonyl]amino}methyl)piperidine] | 
13 | 0.00043 | 0.35 | 0.017 | 1.03 | N=C(NCc1cccc2ccccc12)NC(=O)NCc1cccnc1 [Example 18, 3-({[({Imino[(1-naphthylmethyl)amino]methyl}amino)carbonyl]amino}methyl)pyridine] | 
14 | 0.001 | 2.5 | 0.013 | 1.77 | CC(=O)Nc1ccc(NC(=O)NC(=N)NCc2cccc3ccccc23)cc1 [Example 1, N-(4-{[({Imino[(1-naphthylmethyl)amino]methyl}amino)carbonyl]amino}phenyl)acetamide] | 0.22
15 |  | 2.62 | 0.0098 | 1.7 | CC(C)(CO)CNC(=O)NC(=N)NCc1cccc2ccccc12 [Example 48, 1-({[({[(3-Hydroxy-2,2-dimethylpropyl)amino]carbonyl}amino)(imino)methyl]amino}methyl)naphthalene] | 
16 | 0.0004 | 0.17 | 0.0026 | 0.29 | N=C(NCc1cccc2ccccc12)NC(=O)N[C@H](CO)c1ccccc1 [Example 15, 1-({[[({[(1S)-2-Hydroxy-1-phenylethyl]amino}carbonyl)amino](imino)methyl]amino}methyl)naphthalene] | 
